Our source for the IC50 values is patent publication US9926317B2, “Inhibitors of the renal outer medullary potassium channel” (Merck Sharp & Dohme Corp., priority 2014, dated 2018).

Structures are written as SMILES.

The experiment has as its target T1, ROMK (Kir1.1) channel (Homo sapiens, UniProt P48048).
T1 sequence (P48048 1-391): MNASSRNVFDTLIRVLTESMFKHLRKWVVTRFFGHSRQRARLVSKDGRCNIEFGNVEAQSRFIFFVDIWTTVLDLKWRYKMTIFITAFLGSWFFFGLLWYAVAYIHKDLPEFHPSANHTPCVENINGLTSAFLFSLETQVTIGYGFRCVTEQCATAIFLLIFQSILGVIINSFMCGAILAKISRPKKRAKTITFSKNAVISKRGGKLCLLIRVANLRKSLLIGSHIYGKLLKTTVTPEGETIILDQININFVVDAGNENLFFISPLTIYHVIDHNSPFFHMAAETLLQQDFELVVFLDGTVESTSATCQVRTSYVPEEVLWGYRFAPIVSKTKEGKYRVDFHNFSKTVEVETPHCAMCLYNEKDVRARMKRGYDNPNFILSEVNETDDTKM
The experiment can be described thus: Thallium Flux Assay. The class given is cell-based. The source says:
The compounds of Formula I according to the invention are inhibitors of ROMK, and therefore could be used as diuretic and/or natriuretic agents. ROMK inhibitors may be used to help to increase urination and increase urine volume and also to prevent or reduce reabsorption of sodium in the kidneys leading to increased excretion of sodium and water. Therefore, the compounds could be used for treatment or prophylaxis or both of disorders that benefit from increased excretion of water and sodium from the body. Accordingly, the compounds of this invention could be used in a method for inhibiting ROMK comprising administering a compound of Formula I in a ROMK-inhibitory effective amount to a patient in need thereof. This also encompasses the use of the compounds for inhibiting ROMK in a patient comprising administering a compound of claim 1 in a therapeutically effective amount to a patient in need of diueresis, natriuresis or both. […] Moreover, this invention also relates to the use of the compounds of Formula I or salts thereof to validate in vitro assays, for example but not limited to the Thallium Flux Assay described herein.
The following Thallium Flux Assay was performed on each of the final product compounds in the Examples.
A Thallium Flux Assay was performed on the compounds of the Examples. This assay has been described previously; see, e.g., PCT Published Application WO 2013/062900.
In the case of `CC1=C(N2CCC3(CCN(CC(O)c4ccc(-n5cnnc5)cc4)CC3)C2=O)COC1=O` (racemic) [Example 2, 8-(2-(4-(4H-1,2,4-triazol-4-yl)phenyl)-2-hydroxyethyl)-2-(4-methyl-5-oxo-2,5-dihydrofuran-3-yl)-2,8-diazaspiro[4.5]decan-1-one], it took 176 nM to reach half-maximal inhibition (IC50).
Molecule `CC1=C(N2CCC3(CCN(CC(O)c4ccc(-n5cnnc5)nc4)CC3)C2=O)COC1=O` (racemic) [Example 3, 8-(2-(6-(4H-1,2,4-triazol-4-yl)pyridin-3-yl)-2-hydroxyethyl)-2-(4-methyl-5-oxo-2,5-dihydrofuran-3-yl)-2,8-diazaspiro[4.5]decan-1-one] had an IC50 of 248 nM.
`C[C@H]1CC2(CCN(C[C@@H](O)c3ccc(-n4ncnn4)cc3)CC2)C(=O)N1C1=CC(=O)OC1` [Example 5, (S)-8-((S)-2-(4-(2H-tetrazol-2-yl)phenyl)-2-hydroxyethyl)-3-methyl-2-(5-oxo-2,5-dihydrofuran-3-yl)-2,8-diazaspiro[4.5]decan-1-one] had an IC50 of 3 nM.
The molecule `C[C@H]1CC2(CCN(C[C@H](O)c3ccc(-n4ncnn4)cc3)CC2)C(=O)N1C1=CC(=O)OC1` [Example 6, (S)-8-((R)-2-(4-(2H-tetrazol-2-yl)phenyl)-2-hydroxyethyl)-3-methyl-2-(5-oxo-2,5-dihydrofuran-3-yl)-2,8-diazaspiro[4.5]decan-1-one] registered an IC50 of 5 nM.
The molecule `CC1=C(N2CCC3(CCN(C[C@@H](O)c4ccc(-n5ncnn5)cc4)CC3)C2=O)COC1=O` [Example 4, (S)-8-(2-(4-(2H-tetrazol-2-yl)phenyl)-2-hydroxyethyl)-2-(4-methyl-5-oxo-2,5-dihydrofuran-3-yl)-2,8-diazaspiro[4.5]decan-1-one] returned a half-maximal inhibitory concentration (IC50) of 7 nM.
Next, `CC1=C(N2CCC3(CCN(C[C@H](O)c4ccc(-n5ncnn5)cc4)CC3)C2=O)COC1=O` [Example 1, (R)-8-(2-(4-(2H-tetrazol-2-yl)phenyl)-2-hydroxyethyl)-2-(4-methyl-5-oxo-2,5-dihydrofuran-3-yl)-2,8-diazaspiro[4.5]decan-1-one]: 7 nM.
